Measurements published in US5886156A, “Synthetic peptide lung surfactants having covalently bonded antioxidants” (Merrell Pharmaceuticals Inc., priority 1996, dated 1999).

Test system: surfactant-deficient lavaged rat lungs
Experiment: Isolated rat lavaged lung model (adult rat lung model), pressure-volume curve
Parameters: species or system rat (male Sprague Dawley)
Settings: for PC5 (% TLC): per cent of total lung capacity at 5 cm H2O pressure, deflation limb of P-V curve / PC10 (% TLC): per cent of total lung capacity at 10 cm H2O pressure, deflation limb of P-V curve: peptide-DPPC mixture (or DPPC alone) instilled into lavaged excised rat lungs, 25 mg phospholipid, 100-125 mg/kg, 37° C.; for RESTORATION % (per cent restoration based on PC5 values): relative to surfactant-sufficient (100) and surfactant-deficient (0) lungs, peptide-DPPC mixture or DPPC alone
Excerpt: Methods of testing the synthetic surfactant preparations for efficacy are well known in the art. For example, the synthetic surfactant preparations of the present invention can be tested in any appropriate manner such as in the adult rat lung model (Ikegami, et al., (1979) Pediatr. Res. 13, 777-780). Pressure-volume characteristics of surfactant-depleted rat lungs are similar to those of lungs of infants with hyaline membrane disease and restoration of the pressure-volume relationship of the lung to normal is related to the amount of surfactant instilled in a dose dependent manner. (Bermel, M. S., et al., […] excised rat lungs as a model of surfactant deficiency, Lung 162: 99-113 (1984)). The experimental procedures for animal preparation, pressure-volume curve registration and lung lavage are adapted from those described by Ikegami et al., Pediatr. Res. 11: 178-182 (1977) and Pediatr. Res. 13: 777-780 (1979, and Bermel et al, Lung 162: 99-113 (1984). Male Sprague Dawley rats (200-250 g) are anesthetized with sodium pentobarbital and exsanguinated. The trachea is cannulated and the thoracic organs are removed en bloc. After removal of the adventitious tissue, the trachea and lungs (~2 g) are suspended in saline (0.9%), placed in a vacuum chamber, and degassed according to the procedure of […] et al. the degassed lungs are suspended in saline in a 37° C., jacketed reservoir and the tracheal cannula is connected both to a water manometer and a glass syringe by a T-tube. The glass syringe is placed in an infusion/withdrawal pump. […] The total volume of air infused is recorded as the total lung capacity (TLC) which is generally 14-15 ml. The lungs are then deflated at a rate of 2.5 ml/min until zero pressure is attained. During deflation, pressure is read from the water manometer at 1 cm intervals and recorded. […] After degassing and equilibration, the lungs are rendered surfactant-deficient by repeated lavage with 5 ml/g lavage buffer (0.9% NaCl, 10 mM HEPES, pH 7.4). […] At this point, the lungs are considered surfactant-deficient. […] The mixture is then vortexed again, degassed if foamy, and 2 ml of the test mixture are introduced into and withdrawn from the lungs four times by syringe. When the test mixture is reintroduced to the lungs for the fifth time, it is allowed to remain in the lungs. This procedure is adopted to encourage even distribution of the material throughout the lung. The lungs are degassed, allowed to equilibrate at 37° C. for 5 min, and a P-V measurement is performed. Lungs are studied while supported in saline at 37° C. as opposed to ambient temperature since the physical characteristics of the surfactants may be dependent upon temperature. […] Data are presented in terms of the % TLC. […] Comparisons are based on per cent restoration=([…] ×100/(PC5 (sufficient) -PC5(deficient)) and made by one-way analysis of variance using the general linear models procedure with specific contrasts of the means (SAS Institute Inc., Cary, N.C.). […] The restoration based upon the PC5 values was used to compare the test mixtures.

Compound	effect on the pressure-volume (P-V) curves of the lavaged lung (DPPC alone, without peptide)	PC5 (% TLC): per cent of total lung capacity at 5 cm H2O pressure, deflation limb of P-V curve [% TLC]	PC10 (% TLC): per cent of total lung capacity at 10 cm H2O pressure, deflation limb of P-V curve [% TLC]	RESTORATION % (per cent restoration based on PC5 values) [%]
CCCCCCCCCCCCCCCC(=O)OC[C@H](COP(=O)([O-])OCC[N+](C)(C)C)OC(=O)CCCCCCCCCCCCCCC [DPPC, L-α-dipalmitoylphosphatidylcholine]	no significant effect	13 ± 1	31 ± 2	11 ± 8
HBB-Aoc-Glu-Trp-Ala-Lys-NH2 [SEQ ID NO: 5]	–	55 ± 4	77 ± 2	81 ± 7
